From a melting point compilation (Tetko et al.; mined from patent text by program, amines drawn as free bases though some values may be those of a salt)

| SMILES | melting point |
| --- | --- |
| CC(C)c1nc(-c2ccccc2)nc(-c2ccc(F)cc2)c1C=C(Br)Br | 95 to 98 °C |
| COc1cc(OC(F)F)nc(N)n1 | 106 to 107 °C |
| C[C@H](c1ccccc1)n1c(=O)[nH]c2cc(Cl)cc(Cl)c2c1=O | 205 to 210 °C |
| COc1ccc(-c2nnsc2-c2ccccc2)cc1 | 81.5 to 82.5 °C |
| O=c1c2ccccc2[nH]c2c(OCCN(CCCl)CCCl)cccc12 | 131 to 133 °C |
| CC(C)OC(=O)c1ccccc1SN(C(=O)NC(=O)c1ccccc1Cl)c1ccc(OC(F)(F)F)cc1 | 143 to 144 °C |
| Nc1cccc(C(O)c2cc3c(Oc4ccc(Cl)cc4)cncc3s2)c1 (stereo not given) | 73 to 78 °C |
| CC(C)(O)CCCCCc1ccc(C=Cc2ccc(CO)c(CO)c2)cc1 | 112 to 114 °C |
| OC1CN(CCCOCCc2ccc3sccc3c2)C1 | 60 to 62 °C |
| O=[N+]([O-])c1ccc(-n2nccn2)cc1 | 183 to 184 °C |
| CCOc1cc2c(cc1S(=O)(=O)c1ccccc1)[C@@H](N1CCCC1=O)[C@H](O)C(C)(C)O2 (relative stereo) | 197 to 198 °C |
| O=C(Nc1cccc2[nH]ccc12)c1ccccc1OCC(O)CN1CCN(C(c2ccccc2)c2ccccc2)CC1 (stereo not given) | 170 °C |
| Fc1ccc(CC2C=CC(OCc3ccccc3)=C3N=C4CCCCC4=C32)cc1 (stereo not given) | 134 to 135 °C |
| O=C1c2ccccc2C(O)N1CCCCCO[N+](=O)[O-] (stereo not given) | 70 to 72 °C |
| Oc1ccc(-c2cc3cc(O)ccc3o2)cc1 | 218 to 222 °C |
| CC(=O)Nc1ccc(C(=O)O)cc1O | 249 °C |
| Cc1ncsc1C(=O)Nc1ccc(-n2nc(C(F)(F)F)cc2C2CC2)c(F)c1 | 95 to 97.6 °C |
| COC(=O)CS(=O)(=O)Nc1ccc(F)cc1C(F)(F)F | 84 to 86 °C |
| CC(C)CCC(O)C(C)C1CC=C2C3=C(CCC21C)C1(C)CCC(OC(=O)c2ccccc2)C(C)(C)C1CC3 (stereo not given) | 142 to 143 °C |
| O=S(=O)(c1cnn(-c2c(Cl)cc(C(F)(F)F)cc2Cl)c1Br)C(F)(F)F | 90 to 91 °C |
| COCCn1ccc2cc(NC(=O)/C=C/c3ccc(C(C)(C)C)cc3)ccc21 | 138 °C |
| C=CCCCOc1ccc2c(=O)cc(-c3ccccc3)oc2c1 | 104 to 106 °C |
| CCn1c(=O)ccc2cnc(Nc3ccc(F)cc3)nc21 | 215 to 217 °C |
| O=C1CCC(N2Cc3c(OCc4ccc(CSc5nc6ccccc6[nH]5)cc4)cccc3C2=O)C(=O)N1 (stereo not given) | 160 to 162 °C |
| COC(=O)C(=Cc1cc(OC)cc(OC)c1)c1ccc(Oc2ccc(CC3SC(=O)NC3=O)cc2)cc1 (stereo not given) | 65 to 66 °C |

| SMILES | melting point |
| --- | --- |
| COc1cc(C(=O)NS(=O)(=O)c2ccccc2C)ccc1Cc1c(Cl)n(C)c2ccc(CC3CCN(C)C3=O)cc12 (stereo not given) | 129 to 133 °C |
| CCCCc1c(C(=O)N(C)Cc2ccc3c(Br)c(OCC(Cc4ccccc4)C(=O)O)ccc3c2)oc2ccccc12 (stereo not given) | 64 to 68 °C |
| Cc1cn(C(C)C(=O)c2ccc(Cl)cc2)c(=O)n1-c1ccc(N2CCN(c3ccc(O)cc3)CC2)cc1 (stereo not given) | 230 °C |
| CCOC(=O)Cc1ccc(NC(=O)C(COc2cccnc2)NS(=O)(=O)c2ccc(F)cc2)cc1 (racemic) | 150 to 152 °C |
| O=CN(O)C(CCCO)CS(=O)(=O)c1ccccc1Oc1ccc(Cl)cc1 (stereo not given) | 127 to 129 °C |
| C[C@@H](S[C@H]1CO[C@H](c2ccccc2)OC1)[C@](O)(Cn1cncn1)c1ccc(F)cc1F | 58 to 60 °C |
| CC(C)OC(=O)c1ccccc1C(=O)O | 73 to 77 °C |
| C=CCCn1ncc2c(N)c(C(=O)OCC=C)c(C)nc21 | 64 to 64.5 °C |
| COc1ccc(OC2COc3ccc(OCc4nc5cc(F)ccc5s4)cc3C2O)cc1 (stereo not given) | 180 to 181 °C |
| COc1cc2ncc(C#N)c(Cl)c2cc1[N+](=O)[O-] | 214 to 215 °C |
| OCc1cccc(-c2ccc3nc(-c4ccc(Cl)cc4)cn3c2)c1F | 200 to 202 °C |
| Cc1oc(-c2ccc(C(N)=O)cc2)nc1CCOc1ccc(OC(C)(C)C(=O)O)cc1 | 126 to 127 °C |
| CCCCN(C#N)C(=O)C(C)Oc1ccc(Oc2nc3ccc(Cl)cc3o2)cc1 (stereo not given) | 91 to 92 °C |
| S=C(Cc1ccccc1N1CCOCC1)N1CCOCC1 | 140 °C |
| CCCS(=O)(=O)N=C(NC)NCCSCc1[nH]cnc1C | 73 to 74 °C |
| CS(=O)(=O)c1ccc(Oc2ccc([N+](=O)[O-])cc2C#N)cc1 | 205 to 206 °C |
| Cc1ccc(C)c2c1C(=O)N(CCl)S2(=O)=O | 107 to 108 °C |
| O=[N+]([O-])c1cc(I)cc(CO)c1 | 85.5 to 86.5 °C |
| CCCCCN1Cc2cccc(Cl)c2S1(=O)=O | 46 to 48 °C |
| CC1CCCCC1C(=O)Nc1ccc(-c2ncc(-c3ccc(NC(=O)C4CCCCCC4)cc3)[nH]2)cc1 (stereo not given) | 258 to 260 °C |
| CC1(O)OC(=O)C(c2c(F)cc(F)cc2F)=C1c1ccc2ccccc2c1 (stereo not given) | 164 to 165 °C |
| Nc1ccc(CCCCC(=O)O)nc1 | 80 to 82 °C |
| CCOc1csc(N)c1C#N | 145 to 146 °C |
| CC(C)N1C(=O)NC(c2cccnc2)c2cc3c(cc21)OCO3 (stereo not given) | 172 to 174 °C |
| CCCN(CCC)C(=O)COc1nc(-c2ccccc2)nc(C)c1Cl | 90 to 91 °C |

| SMILES | melting point |
| --- | --- |
| O=C(CN1CCNCCNCCNCC1)Nc1c(I)cc(I)c(C(=O)O)c1I | 245 to 246 °C |
| COC(=O)Cn1ccc2ccc(-c3nccc(-c4ccccc4)n3)cc21 | 111 °C |
| Cc1cccc(Cl)c1NS(=O)(=O)c1n[nH]c(N)n1 | 217 °C |
| CC(C)(C#N)Cc1ccc(CC(C)(C)C#N)cc1 | 192 to 194 °C |
| C#CCC(CC#C)NC(=O)OC(C)(C)C | 64 to 67 °C |
| COc1ccc(C(=O)Nc2ccc(C(C)(C)C#N)c(-c3cccc(Cl)c3)c2)cc1OC | 144 to 146 °C |
| CCCN1CCO[C@@H]2c3cc4c(=O)n(OC)ccc4cc3CC[C@H]21 | 142 to 145 °C |
| CN(C)NC(=O)N(OCc1ccccc1)C1c2ccccc2Oc2ccccc21 | 117 °C |
| FC(F)(F)c1cccc(C2=CCNc3ccnn32)c1 | 61 to 64 °C |
| COC(=O)c1ccccc1-n1c(CCl)nc2cccc(Cl)c2c1=O | 177 to 178 °C |
| O=[N+]([O-])c1cc(Cl)c(Cl)cc1NC1C=CCC1 (stereo not given) | 85 to 86 °C |
| CCC1(Cl)NN=C2C=Nc3cc(Cl)c(Cl)cc3N21 (stereo not given) | 198 to 201 °C |
| Cc1cc(Br)ccc1C1(CBr)OCCO1 | 86 °C |
| CCCCCCN(CCCCCC)c1ccc(C2=C(C#N)C(=C(C#N)C#N)OC2(C)C)s1 | 134 °C |
| Cc1cc2c(-c3cccc(/C=C/c4nnn[nH]4)c3)c(CC(=O)Nc3ccc(F)cc3C(F)(F)F)c(=O)oc2cc1Cl | 216 to 218 °C |
| O=C1c2c(ccc3c2OCCO3)S(=O)(=O)N1CCCCBr | 135 to 136 °C |
| Brc1ccc(Oc2ccc(-n3ccnc3)nn2)cc1 | 168 °C |
| CCOC(=O)Cc1c(-c2ccccc2)c2cc(C)c(Cl)cc2oc1=O | 132 to 133 °C |
| NC(=O)OC[C@@H]1[C@H](NC(=O)/C(=N\OCC(=O)O)c2csc(N)n2)C(=O)N1S(=O)(=O)O | 207 °C |
| Cn1nnnc1-c1cn(C)c2cc(N3CCCCC3)ccc2c1=O | 180 to 183 °C |
| Cc1ccc(NC(=O)c2cccc(N(C)C)c2)cc1NC(=O)c1cccc(NS(C)(=O)=O)c1 | 239 to 240 °C |
| COc1cc2c(cc1OCc1ccccc1)CC(C(=O)O)NC2 (racemic) | 230 to 240 °C |
| CN(C(=O)COc1cc(-c2ccccc2)nc2ccccc12)C1CCC1 | 110 °C |
| O=C(O)CCC(CCCCNS(=O)(=O)c1ccc(Cl)cc1)CCCc1cccnc1 (stereo not given) | 116 to 118 °C |
| OCCn1cnc2c(NCCN3CCC(Nc4nc5ccccc5n4Cc4ccc(F)cc4)CC3)ncnc21 | 169 °C |

| SMILES | melting point |
| --- | --- |
| Cc1ccc(CCN2CCC[C@H](C(C#N)(c3ccccc3)c3ccccc3)C2)cc1 | 110 to 113 °C |
| CCCCCC(=O)n1c(=O)n(CCCC)c(=O)n1C(=O)CCCCC | 88 to 89 °C |
| O=[N+]([O-])c1cccc(-c2nnc(Nc3cccc(SCCCc4ccccc4)c3)s2)c1 | 169 to 171 °C |
| CC(C)(C)c1noc(-c2cnc(Cl)c(Cl)c2)n1 | 98 to 101 °C |
| COc1ccc(C2(C(=O)Oc3ccc(C(=O)NO)cc3)CCCCC2)cc1 | 127 to 129 °C |
| CC(C)(C)OC(=O)C(F)=CC1C(C(=O)OC(C#N)c2cccc(Oc3ccccc3)c2)C1(C)C (stereo not given) | 103 °C |
| CC(C)Oc1ccc2c(Cl)nc(C(=O)NCCO)c(O)c2c1 | 155 to 156 °C |
| O=C(OCc1ccccc1)c1ccc(OCc2ccc(COc3ccc(C(=O)OCc4ccccc4)cc3)cc2)cc1 | 154 to 157 °C |
| COC(c1cc(C)c(OCC(=O)O)c(C)c1)(C(F)(F)F)C(F)(F)F | 105 to 108 °C |
| Cc1cc(C)cc(N(CCCC(N)=O)Cc2ccc3nc(NCCCN4CCOCC4)n(Cc4cccc5cccnc45)c3c2)c1 | 154 °C |
| CCOc1ccccc1OCC1CN=C(N)O1 (stereo not given) | 130 °C |
| O[C@H](COc1cccc2[nH]ccc12)CN1CC=C(c2c[nH]c3cc(F)ccc23)CC1 | 95 to 100 °C |
| Nc1ccc2nc3c(nc2c1)OCC1CCCCN31 (stereo not given) | 229 to 232 °C |
| COc1cc2ncc(C#N)c(Nc3ccc(Cl)cc3C)c2cc1OC | 227 to 229 °C |
| NC(=O)NN=Cc1ccc(OC2CCCCC2)cc1 | 215 to 217 °C |
| COc1ccc(CC2NCCCC2C(C)O)cc1 (stereo not given) | > 300 °C |
| O=S(c1ccccc1-c1ccccc1)C(F)(F)F (stereo not given) | 57 to 58 °C |
| COC1(c2ccc(Sc3ccc4c(c3)OCC(=O)N4C)s2)CCOCC1 | 65 to 69 °C |
| Cc1ccc(CNC(=S)NCCO)c(C)c1 | 101 to 103 °C |
| COc1cc(C2=C(c3c[nH]c4ccccc34)C(=O)NC2=O)cc(OC)c1OC | 227 °C |
| CC1(c2ccccc2)CCC(=O)CC1 | 48 to 50 °C |
| CCCCCCc1cc(C=O)c(O)cc1O | 108 to 110 °C |
| c1coc(-c2ccc(-c3ccco3)cc2)c1 | 149 to 150 °C |
| CON=CC1CCCN(C(=O)Oc2ccccc2)C1 (stereo not given) | 40 to 41 °C |
| O=C(NO)[C@H](CNS(=O)(=O)c1ccc(OCc2cc(Cl)cc(Cl)c2)cc1)N1CCCCC1 | 130 °C |
